Key:
C57BL/6 (B6) male mice [1] = experiment: Histopathological analysis of spleen, kidney and liver; format: in vivo; details: mice, all three doses (5, 25, 50 mg/kg p.o.)
Experimental: Spleen, kidney, and liver tissue samples from the control and treated animals were fixed in 4% formaldehyde and embedded into paraffin. The analysis and evaluation were performed at the Czech Centre for Phenogenomics, Institute of Molecular Genetics of the CAS, Vestec, using Leica ASP6025 automatic vacuum tissue processor for tissue processing, Leica EG1150 H + C embedding station for embedding, and Leica RM2255 rotary microtome for sectioning (2 μm sections). Standard haematoxylin and eosin (HE) descriptive histopathological staining was done using Leica ST5020 + CV5030 stainer and coverslipped.

[2] = tested on: mTORC1 substrate p70 S6 kinase (Thr389 phosphorylation); experiment: Immunoblot of phospho-p70 S6K (Thr389), mTORC1 activity in cells; format: cell-based, human; details: BJ cells; 100 μM; 1 and 5 h
[3] = Dissociation constants by spectrophotometric titration; format: physicochemical; details: 20°C
Experimental: The spectrophotometric titration was used for dissociation constants’ determination, utilizing spectrophotometer Agilent Cary-60 (Agilent Technologies, CA, USA), pH meter WTW InoLab_IDS Multi 9430 (WTW, Czech Republic), and pH electrode SenTix® Mic (WTW, Czech Republic). Data were analyzed by GraphPadPrism 8.0 software (GraphPad Software, CA, USA). The analyzed samples were prepared by adding 20 μL of compound stock solution (2 mg/mL) and 20 μL of 0.1 M hydrochloric acid into the cuvette with ultrapure water (total volume 3.5 mL). The samples were titrated by 0.1 M sodium hydroxide at 20°C while acquiring absorption spectra (190–500 nm) at different pH values. Absorbance at the chosen wavelength was plotted as a function of pH. The inflection point in the given plot was used for pKa value determination.

[4] = tested on: pro-inflammatory cytokines of SASP; experiment: Secretion of pro-inflammatory cytokines (SASP) by senescent cells; format: cell-based, human; details: TMZ-induced U87 senescent cells; 50 μM; 24 h
Experimental: To determine the secretion of selected inflammatory cytokines into culture media, cell cultures were exposed to tested compounds (50 μM) for 24 h. Then the culture medium was removed, cells were washed three times with 1 mL PBS, and a fresh medium without FBS was added for 24 h. Detection of cytokines in conditioned culture media was done by Human Inflammation 11-Plex Panel: IFNγ, IL-1α, IL-1β, IL-6, IL-8, IL-10, IL-12p70, IL-27, IP-10, MCP-1, and TNFα (AimPlex Biosciences, Inc.) using a BD FACSVerseTM flow cytometer (BD Biosciences, Franklin Lakes, NJ, USA) according to manufacturer’s protocol. Data were analyzed using FlowJo 10 software (FlowJo LLC, Ashland, OR, USA).
Importantly, compound 3 decreased IL-1α, IL-8, and MCP-1 consistently in all tested senescence models. The effect of compound 3 on IL-6 was variable.

C57BL/6 (B6) male mice [5] = experiment: Blood counts in the tolerability study; format: in vivo; details: mice, blood day 8; for Eos / HOT / MPV / Neu / PCT / PDW / RBC / RDW-CV / lvm / PLT / WBC / MCV / RDW-SD / HGB / MCHC / MCH / Mon: AVG; for PLT / WBC: in 10^9/L (unit assumed); for MCV / RDW-SD: in fL (unit assumed); for HGB / MCHC: in g/L (unit assumed); for MCH: in pg (unit assumed); for Mon: unit assumed
Experimental: Compounds were dissolved in 20 μL DMSO and completed into 200 μL with corn oil.
During the experiments, mice behavior and possible apparent signs of toxicity were monitored daily. The body weights were determined on days 0, 4, and 8. On day 8, blood (25 μL) was withdrawn using a capillary pipette containing anticoagulant (heparin) from the retroorbital sinus into EDTA-containing tubes. Basic hematological parameters were measured using the Mindray BC-5300 Vet. Mice were then killed, autopsied, and abdominal organs (spleen, liver, and kidney) were removed for visual examination and imaging by a digital camera. Single-cell suspensions from the spleens were prepared by homogenization through a cell strainer (70 μm; BD Biosciences, San Jose, CA, USA). Erythrocytes were osmotically lysed using ammonium chloride-potassium lysis buffer, and the cell suspensions were washed three times in the RPMI-1640 medium and used for further analysis by flow cytometry for selected cell populations.

With `CC(C)n1nc(-c2cc3cc(O)ccc3[nH]2)c2c(N)ncnc21` [Torkinib, torkinib] the “histopathology, spleen” value (C57BL/6 (B6) male mice [1]) was “minimal to moderate signs of extramedullary haematopoiesis”, the “effect on Thr389 S6K phosphorylation” value [2] was “inhibitory effect” and the pKa1 [3] was 3.96 ± 0.02. The pKa2 [3] was 10.37 ± 0.18, the “all detectable cytokines (IL-1α, IL-1β, IL-6, IL-8, IL-27, MCP-1, TNFα)” value [4] was “suppressed” and the Eos (C57BL/6 (B6) male mice [5]; 5 mg/kg p.o. days 0, 3, 5) was 0.04. The HOT (C57BL/6 (B6) male mice [5]; 5 mg/kg p.o. days 0, 3, 5) was 0.49, the MPV (C57BL/6 (B6) male mice [5]; 5 mg/kg p.o. days 0, 3, 5) was 5.33 and the Neu (C57BL/6 (B6) male mice [5]; 5 mg/kg p.o. days 0, 3, 5) was 0.99. For the same compound, the PCT (C57BL/6 (B6) male mice [5]; 5 mg/kg p.o. days 0, 3, 5) was 3.59, the PDW (C57BL/6 (B6) male mice [5]; 5 mg/kg p.o. days 0, 3, 5) was 14.57 and the RBC (C57BL/6 (B6) male mice [5]; 5 mg/kg p.o. days 0, 3, 5) was 9.25 10^12/L. For the same compound, the RDW-CV (C57BL/6 (B6) male mice [5]; 5 mg/kg p.o. days 0, 3, 5) was 0.14, the lvm (C57BL/6 (B6) male mice [5]; 5 mg/kg p.o. days 0, 3, 5) was 8.67 and the PLT (C57BL/6 (B6) male mice [5]; 5 mg/kg p.o. days 0, 3, 5) was 690.67. It also gave a WBC (C57BL/6 (B6) male mice [5]; 5 mg/kg p.o. days 0, 3, 5) of 10.43, an MCV (C57BL/6 (B6) male mice [5]; 5 mg/kg p.o. days 0, 3, 5) of 53.73 and an RDW-SD (C57BL/6 (B6) male mice [5]; 5 mg/kg p.o. days 0, 3, 5) of 31.77. It also gave an HGB (C57BL/6 (B6) male mice [5]; 5 mg/kg p.o. days 0, 3, 5) of 146.00, an MCHC (C57BL/6 (B6) male mice [5]; 5 mg/kg p.o. days 0, 3, 5) of 296.67 and an MCH (C57BL/6 (B6) male mice [5]; 5 mg/kg p.o. days 0, 3, 5) of 15.97. For the same compound, the Mon (C57BL/6 (B6) male mice [5]; 5 mg/kg p.o. days 0, 3, 5) was 0.73 10^9/L, the Eos (C57BL/6 (B6) male mice [5]; 25 mg/kg p.o. days 0, 3, 5) was 0.08 and the HOT (C57BL/6 (B6) male mice [5]; 25 mg/kg p.o. days 0, 3, 5) was 0.52. It also gave an MPV (C57BL/6 (B6) male mice [5]; 25 mg/kg p.o. days 0, 3, 5) of 5.30, a Neu (C57BL/6 (B6) male mice [5]; 25 mg/kg p.o. days 0, 3, 5) of 0.79 and a PCT (C57BL/6 (B6) male mice [5]; 25 mg/kg p.o. days 0, 3, 5) of 3.79. For the same compound, the PDW (C57BL/6 (B6) male mice [5]; 25 mg/kg p.o. days 0, 3, 5) was 14.73, the RBC (C57BL/6 (B6) male mice [5]; 25 mg/kg p.o. days 0, 3, 5) was 9.96 10^12/L and the RDW-CV (C57BL/6 (B6) male mice [5]; 25 mg/kg p.o. days 0, 3, 5) was 0.14. For the same compound, the lvm (C57BL/6 (B6) male mice [5]; 25 mg/kg p.o. days 0, 3, 5) was 6.68, the PLT (C57BL/6 (B6) male mice [5]; 25 mg/kg p.o. days 0, 3, 5) was 712.00 and the WBC (C57BL/6 (B6) male mice [5]; 25 mg/kg p.o. days 0, 3, 5) was 8.14. It also gave an MCV (C57BL/6 (B6) male mice [5]; 25 mg/kg p.o. days 0, 3, 5) of 51.90, an RDW-SD (C57BL/6 (B6) male mice [5]; 25 mg/kg p.o. days 0, 3, 5) of 29.23 and an HGB (C57BL/6 (B6) male mice [5]; 25 mg/kg p.o. days 0, 3, 5) of 154.00. For the same compound, the MCHC (C57BL/6 (B6) male mice [5]; 25 mg/kg p.o. days 0, 3, 5) was 298.00, the MCH (C57BL/6 (B6) male mice [5]; 25 mg/kg p.o. days 0, 3, 5) was 15.50 and the Mon (C57BL/6 (B6) male mice [5]; 25 mg/kg p.o. days 0, 3, 5) was 0.59 10^9/L. The Eos (C57BL/6 (B6) male mice [5]; 50 mg/kg p.o. days 0, 3, 5) was 0.04, the HOT (C57BL/6 (B6) male mice [5]; 50 mg/kg p.o. days 0, 3, 5) was 0.53 and the MPV (C57BL/6 (B6) male mice [5]; 50 mg/kg p.o. days 0, 3, 5) was 5.43. For the same compound, the Neu (C57BL/6 (B6) male mice [5]; 50 mg/kg p.o. days 0, 3, 5) was 1.25, the PCT (C57BL/6 (B6) male mice [5]; 50 mg/kg p.o. days 0, 3, 5) was 4.73 and the PDW (C57BL/6 (B6) male mice [5]; 50 mg/kg p.o. days 0, 3, 5) was 14.67. The RBC (C57BL/6 (B6) male mice [5]; 50 mg/kg p.o. days 0, 3, 5) was 9.95 10^12/L, the RDW-CV (C57BL/6 (B6) male mice [5]; 50 mg/kg p.o. days 0, 3, 5) was 0.14 and the lvm (C57BL/6 (B6) male mice [5]; 50 mg/kg p.o. days 0, 3, 5) was 6.32. The PLT (C57BL/6 (B6) male mice [5]; 50 mg/kg p.o. days 0, 3, 5) was 873.67, the WBC (C57BL/6 (B6) male mice [5]; 50 mg/kg p.o. days 0, 3, 5) was 8.70 and the MCV (C57BL/6 (B6) male mice [5]; 50 mg/kg p.o. days 0, 3, 5) was 53.27. It also gave an RDW-SD (C57BL/6 (B6) male mice [5]; 50 mg/kg p.o. days 0, 3, 5) of 31.07, an HGB (C57BL/6 (B6) male mice [5]; 50 mg/kg p.o. days 0, 3, 5) of 153.67 and an MCHC (C57BL/6 (B6) male mice [5]; 50 mg/kg p.o. days 0, 3, 5) of 290.33. For the same compound, the MCH (C57BL/6 (B6) male mice [5]; 50 mg/kg p.o. days 0, 3, 5) was 15.50, the Mon (C57BL/6 (B6) male mice [5]; 50 mg/kg p.o. days 0, 3, 5) was 1.09 10^9/L and the “blood count analysis, overall finding” value (C57BL/6 (B6) male mice [5]; p.o. 5, 25 and 50 mg/kg) was “no abnormal changes”.
